Source: patent publication US9409905B2, “Antibacterial compounds and methods for use” (PTC THERAPEUTICS, INC., priority 2011, dated 2016)
Values after ≈ are worked out from the molar mass of the structure shown.

Tests used:
[1] = system: Escherichia coli (E. coli) BAS849; experiment: Antibacterial activity, microbroth dilution MIC (Table 1); assay type: cell-based; settings: microbroth dilution, super sensitive Gram-negative E. coli BAS849, read-out: MIC, BAS849
In short: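 Microbroth dilution was used. MIC, in μg/mL, is the lowest drug concentration preventing macroscopically visible growth under the test conditions.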

[2] = system: Staphylococcus aureus (S. aureus) 29213; experiment: as above; assay type: cell-based; settings: microbroth dilution, Gram-positive S. aureus 29213, read-out: MIC, 29213
In short: (§1)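 Values are MICs (μg/mL): the smallest drug amount at which macroscopically visible bacterial growth is absent under assay conditions, from a microdilution method in broth.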

E. coli 25922 = experiment: as above; assay type: cell-based, Escherichia coli; settings: Escherichia coli; microbroth dilution; control Gram-negative E. coli 25922 strain; read-out: MIC, 25922
In short: as §1

E. coli LZ3111 = experiment: Antibacterial activity, MIC, quinolone resistant strain (Table 2); assay type: cell-based; settings: Escherichia coli, LZ3111, read-out: MIC LZ3111
In short: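 MIC values (μg/mL) came from a microbroth dilution assay, scored as the lowest drug concentration at which no growth was visible by eye.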

[3] = system: Acinetobacter baumannii (A. baumannii) BAA747; experiment: Antibacterial activity, MIC (Table 4); assay type: cell-based; settings: A. baumannii BAA747, read-out: MIC, BAA747
In short: (§2)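 Activity was measured by microbroth dilution. The MIC, in μg/mL, is the lowest drug concentration that prevents macroscopically visible growth under the test conditions. The resistant strains are multi-drug resistant clinical isolates.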

[4] = system: Klebsiella pneumoniae (K. pneumoniae) 35657; experiment: Antibacterial activity, MIC (Table 4); assay type: cell-based; settings: K. pneumoniae 35657, read-out: MIC, 35657
In short: as §2

A. baumannii MXX2240 = experiment: Antibacterial activity, MIC, resistant strain (Table 4); assay type: cell-based; settings: Acinetobacter baumannii, MXX2240; resistant A. baumannii MMX2240, multi-drug resistant clinical isolate; read-out: MIC, MMX2240
In short: as §2

K. pneumoniae MXX1232 = experiment: as above; assay type: cell-based; settings: Klebsiella pneumoniae, MXX1232; resistant K. pneumoniae MMX1232, multi-drug resistant clinical isolate; read-out: MIC, MMX1232
In short: as §2

[5] = system: Pseudomonas aeruginosa (P. aeruginosa) 27853; experiment: Antibacterial activity, MIC (Table 5); assay type: cell-based; settings: P. aeruginosa 27853, read-out: MIC, 27853
In short: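 Values are MICs in μg/mL, read as the lowest concentration at which no growth is visible by eye. They were determined by a microbroth dilution method.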

C=CCc1c(-c2ccc3c(c2)cc(CN(C)C)n3C)[nH]c(=O)c(C(=O)O)c1O [Cpd 339, 5-allyl-6-(2-((dimethylamino)methyl)-1-methyl-1H-indol-5-yl)-4-hydroxy-2-oxo-1,2-dihydropyridine-3-carboxylic acid]
MIC [1]: < 1 µg/mL | MIC [2]: 3.5 to 12.5 µg/mL (≈ 9.18 to 32.8 µM) | MIC (E. coli 25922): < 1 µg/mL | MIC (E. coli LZ3111): 3.5 to 12.5 µg/mL (≈ 9.18 to 32.8 µM) | MIC [3]: 3.5 to 12.5 µg/mL (≈ 9.18 to 32.8 µM) | MIC [4]: 1 to 3.5 µg/mL (≈ 2.62 to 9.18 µM) | MIC (A. baumannii MXX2240): 3.5 to 12.5 µg/mL (≈ 9.18 to 32.8 µM) | MIC (K. pneumoniae MXX1232): 12.5 to 150 µg/mL (≈ 32.8 to 393 µM) | MIC [5]: 12.5 to 150 µg/mL (≈ 32.8 to 393 µM)

CCc1c(-c2cc3cc(F)ccc3[nH]2)[nH]c(=O)c(C(=O)O)c1O [Cpd 380, 5-ethyl-6-(5-fluoro-1H-indol-2-yl)-4-hydroxy-2-oxo-1,2-dihydropyridine-3-carboxylic acid]
MIC [1]: 3.5 to 12.5 µg/mL (≈ 11.1 to 39.5 µM) | MIC [2]: 12.5 to 150 µg/mL (≈ 39.5 to 474 µM) | MIC (E. coli 25922): 12.5 to 150 µg/mL (≈ 39.5 to 474 µM) | MIC (E. coli LZ3111): 12.5 to 150 µg/mL (≈ 39.5 to 474 µM) | MIC [3]: 12.5 to 150 µg/mL (≈ 39.5 to 474 µM) | MIC [4]: 12.5 to 150 µg/mL (≈ 39.5 to 474 µM) | MIC (A. baumannii MXX2240): 12.5 to 150 µg/mL (≈ 39.5 to 474 µM) | MIC (K. pneumoniae MXX1232): 12.5 to 150 µg/mL (≈ 39.5 to 474 µM) | MIC [5]: 12.5 to 150 µg/mL (≈ 39.5 to 474 µM)

CCc1c(-c2ccc3c(c2)c(F)c(CNC)n3C)[nH]c(=O)c(C(=O)O)c1O [Cpd 368, 5-ethyl-6-(3-fluoro-1-methyl-2-((methylamino)methyl)-1H-indol-5-yl)-4-hydroxy-2-oxo-1,2-dihydropyridine-3-carboxylic acid]
MIC [1]: < 1 µg/mL | MIC [2]: 12.5 to 150 µg/mL (≈ 33.5 to 402 µM) | MIC (E. coli 25922): 1 to 3.5 µg/mL (≈ 2.68 to 9.37 µM) | MIC (E. coli LZ3111): 3.5 to 12.5 µg/mL (≈ 9.37 to 33.5 µM) | MIC [3]: 1 to 3.5 µg/mL (≈ 2.68 to 9.37 µM) | MIC [4]: 1 to 3.5 µg/mL (≈ 2.68 to 9.37 µM) | MIC (A. baumannii MXX2240): 3.5 to 12.5 µg/mL (≈ 9.37 to 33.5 µM) | MIC (K. pneumoniae MXX1232): 12.5 to 150 µg/mL (≈ 33.5 to 402 µM) | MIC [5]: 12.5 to 150 µg/mL (≈ 33.5 to 402 µM)

CCc1c(-c2ccc3[nH]c(-c4ccc(C#N)cc4)cc3c2)[nH]c(=O)c(C(=O)O)c1O [Cpd 453, 6-(2-(4-cyanophenyl)-1H-indol-5-yl)-5-ethyl-4-hydroxy-2-oxo-1,2-dihydropyridine-3-carboxylic acid]
MIC [1]: < 1 µg/mL | MIC [2]: 1 to 3.5 µg/mL (≈ 2.5 to 8.76 µM) | MIC (E. coli 25922): 12.5 to 150 µg/mL (≈ 31.3 to 376 µM) | MIC (E. coli LZ3111): 12.5 to 150 µg/mL (≈ 31.3 to 376 µM) | MIC [3]: 12.5 to 150 µg/mL (≈ 31.3 to 376 µM) | MIC [4]: 12.5 to 150 µg/mL (≈ 31.3 to 376 µM) | MIC (A. baumannii MXX2240): 12.5 to 150 µg/mL (≈ 31.3 to 376 µM) | MIC (K. pneumoniae MXX1232): 12.5 to 150 µg/mL (≈ 31.3 to 376 µM) | MIC [5]: 12.5 to 150 µg/mL (≈ 31.3 to 376 µM)

CCc1c(-c2ccc3c(c2)cc2n3CC(N(C)CC)C2)[nH]c(=O)c(C(=O)O)c1O (stereo not drawn) [Cpd 419, 5-ethyl-6-(2-(ethyl(methyl)amino)-2,3-dihydro-1H-pyrrolo[1,2-a]indol-7-yl)-4-hydroxy-2-oxo-1,2-dihydropyridine-3-carboxylic acid]
MIC [1]: < 1 µg/mL | MIC [2]: 3.5 to 12.5 µg/mL (≈ 8.85 to 31.6 µM) | MIC (E. coli 25922): 3.5 to 12.5 µg/mL (≈ 8.85 to 31.6 µM) | MIC (E. coli LZ3111): 1 to 3.5 µg/mL (≈ 2.53 to 8.85 µM) | MIC [3]: 3.5 to 12.5 µg/mL (≈ 8.85 to 31.6 µM) | MIC [4]: 3.5 to 12.5 µg/mL (≈ 8.85 to 31.6 µM) | MIC (A. baumannii MXX2240): 3.5 to 12.5 µg/mL (≈ 8.85 to 31.6 µM) | MIC (K. pneumoniae MXX1232): 12.5 to 150 µg/mL (≈ 31.6 to 379 µM) | MIC [5]: 12.5 to 150 µg/mL (≈ 31.6 to 379 µM)

CCc1c(-c2cc3cc(F)ccc3n2C)[nH]c(=O)c(C(=O)O)c1O [Cpd 406, 5-ethyl-6-(5-fluoro-1-methyl-1H-indol-2-yl)-4-hydroxy-2-oxo-1,2-dihydropyridine-3-carboxylic acid]
MIC [1]: 1 to 3.5 µg/mL (≈ 3.03 to 10.6 µM) | MIC [2]: 3.5 to 12.5 µg/mL (≈ 10.6 to 37.8 µM) | MIC (E. coli 25922): 12.5 to 150 µg/mL (≈ 37.8 to 454 µM) | MIC (E. coli LZ3111): 12.5 to 150 µg/mL (≈ 37.8 to 454 µM) | MIC [3]: 12.5 to 150 µg/mL (≈ 37.8 to 454 µM) | MIC [4]: 12.5 to 150 µg/mL (≈ 37.8 to 454 µM) | MIC (A. baumannii MXX2240): 12.5 to 150 µg/mL (≈ 37.8 to 454 µM) | MIC (K. pneumoniae MXX1232): 12.5 to 150 µg/mL (≈ 37.8 to 454 µM) | MIC [5]: 12.5 to 150 µg/mL (≈ 37.8 to 454 µM)

COCC(C)NCc1cc2cc(-c3[nH]c(=O)c(C(=O)O)c(O)c3C)ccc2n1C (stereo not drawn) [Cpd 346, 4-hydroxy-6-(2-((1-methoxypropan-2-ylamino)methyl)-1-methyl-1H-indol-5-yl)-5-methyl-2-oxo-1,2-dihydropyridine-3-carboxylic acid]
MIC [1]: < 1 µg/mL | MIC [2]: 12.5 to 150 µg/mL (≈ 31.3 to 376 µM) | MIC (E. coli 25922): 12.5 to 150 µg/mL (≈ 31.3 to 376 µM) | MIC (E. coli LZ3111): 3.5 to 12.5 µg/mL (≈ 8.76 to 31.3 µM) | MIC [3]: 3.5 to 12.5 µg/mL (≈ 8.76 to 31.3 µM) | MIC [4]: 3.5 to 12.5 µg/mL (≈ 8.76 to 31.3 µM) | MIC (A. baumannii MXX2240): 3.5 to 12.5 µg/mL (≈ 8.76 to 31.3 µM) | MIC (K. pneumoniae MXX1232): 12.5 to 150 µg/mL (≈ 31.3 to 376 µM) | MIC [5]: 12.5 to 150 µg/mL (≈ 31.3 to 376 µM)

Cc1c(-c2ccc3nn(C)cc3c2)[nH]c(=O)c(C(=O)O)c1O [Cpd 395, 4-hydroxy-5-methyl-6-(2-methyl-2H-indazol-5-yl)-2-oxo-1,2-dihydropyridine-3-carboxylic acid]
MIC [1]: 12.5 to 150 µg/mL (≈ 41.8 to 501 µM) | MIC [2]: 3.5 to 12.5 µg/mL (≈ 11.7 to 41.8 µM) | MIC (E. coli 25922): 12.5 to 150 µg/mL (≈ 41.8 to 501 µM) | MIC (E. coli LZ3111): 1 to 3.5 µg/mL (≈ 3.34 to 11.7 µM) | MIC [3]: 12.5 to 150 µg/mL (≈ 41.8 to 501 µM) | MIC [4]: 12.5 to 150 µg/mL (≈ 41.8 to 501 µM) | MIC (A. baumannii MXX2240): 3.5 to 12.5 µg/mL (≈ 11.7 to 41.8 µM) | MIC (K. pneumoniae MXX1232): 12.5 to 150 µg/mL (≈ 41.8 to 501 µM) | MIC [5]: 12.5 to 150 µg/mL (≈ 41.8 to 501 µM)
